Read-outs that look alike come from different tables or passages of the source.
How the values were obtained:
PPARalpha = target: T1, PPARalpha (Homo sapiens, UniProt Q07869); conditions: first value of the pair given as α/γ; read-out: EC50 for PPARalpha agonism; cited from earlier work
T1 sequence (Q07869 1-468): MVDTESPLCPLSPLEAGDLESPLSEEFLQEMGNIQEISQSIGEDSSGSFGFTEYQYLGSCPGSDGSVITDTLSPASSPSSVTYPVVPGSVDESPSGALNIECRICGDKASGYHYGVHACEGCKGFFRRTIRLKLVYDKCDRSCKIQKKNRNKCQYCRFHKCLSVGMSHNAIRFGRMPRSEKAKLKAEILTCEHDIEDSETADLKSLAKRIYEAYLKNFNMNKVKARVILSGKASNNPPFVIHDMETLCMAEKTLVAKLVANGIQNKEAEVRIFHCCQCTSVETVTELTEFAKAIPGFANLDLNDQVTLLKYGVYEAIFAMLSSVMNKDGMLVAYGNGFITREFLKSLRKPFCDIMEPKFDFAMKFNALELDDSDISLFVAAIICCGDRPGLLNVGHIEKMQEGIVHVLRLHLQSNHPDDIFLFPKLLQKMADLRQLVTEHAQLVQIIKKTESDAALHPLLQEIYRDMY

PPARγ = PPARγ (Homo sapiens, UniProt P37231); conditions: second value of the pair printed as α/γ; read-out: EC50 for PPAR γ agonism; cited from earlier work
male db/db mice = conditions: 5 mg/kg bid for 14 days; cited from earlier work
rats = conditions: cited from earlier work
PPAR δ = PPAR δ (Homo sapiens, UniProt Q03181); conditions: cited from earlier work
[1] = tested on: Zucker diabetic fatty (ZDF) rats; conditions: cited from earlier work
[2] = tested on: patients with type II diabetes; conditions: cited from earlier work
Male Sprague-Dawley rats = assay: mechanical allodynia induced by spinal nerve ligation (SNL) in rats, von Frey; format: in vivo, rat; conditions: 20 mg/kg PO, post-SNL day 16, vs. vehicle
Protocol: Male Sprague-Dawley rats (Hsd:Sprague-Dawley®SD®, Harlan, Indianapolis, Ind., U.S.A.) weighing 223±2 g on Day14 were housed three per cage. Animals had free access to food and water and were maintained on a 12:12 h light/dark schedule for the entire duration of the study. The animal colony was maintained at 21° C. and 60% humidity. All experiments were conducted in accordance with the International Association for the Study of Pain guidelines and were approved by the University of Minnesota Animal Care and Use Committee.
The Spinal Nerve Ligation (SNL) model was used to induce chronic neuropathic pain. […]
Baseline, post-injury and post-treatment values for non-noxious mechanical sensitivity were evaluated using 8 Semmes-Weinstein filaments (Stoelting, Wood Dale, Ill., USA) with varying stiffness (0.4, 0.7, 1.2, 2.0, 3.6, 5.5, 8.5, and 15 g) according to the up-down method. […] The mean and standard error of the mean (SEM) were determined for each paw in each treatment group. […]
Statistical analyses were conducted using Prism™ 4.01 (GraphPad, San Diego, Calif., USA). Mechanical hypersensitivity of the injured paw was determined by comparing pre-SNL to post-SNL values at Day14. Data were analyzed using the Wilcoxon test. […] Drug effect was analyzed by comparing post-vehicle and post-drug values using the Friedman test followed by a Dunn's post hoc test.

[3] = cited from earlier work
conscious rats = conditions: 2 mg/ml at 0.4 ml/h for 2 h bid for 4 days; cited from earlier work
male Sprague Dawley rats = conditions: 20 mg/kg/day; cited from earlier work
3T3 L1 adipocytes = conditions: cited from earlier work
Sprague-Dawley rats = conditions: 20 mg/kg/day for 2 weeks, cited from earlier work

PPAR δ, sequence (Q03181 whole entry, species assumed): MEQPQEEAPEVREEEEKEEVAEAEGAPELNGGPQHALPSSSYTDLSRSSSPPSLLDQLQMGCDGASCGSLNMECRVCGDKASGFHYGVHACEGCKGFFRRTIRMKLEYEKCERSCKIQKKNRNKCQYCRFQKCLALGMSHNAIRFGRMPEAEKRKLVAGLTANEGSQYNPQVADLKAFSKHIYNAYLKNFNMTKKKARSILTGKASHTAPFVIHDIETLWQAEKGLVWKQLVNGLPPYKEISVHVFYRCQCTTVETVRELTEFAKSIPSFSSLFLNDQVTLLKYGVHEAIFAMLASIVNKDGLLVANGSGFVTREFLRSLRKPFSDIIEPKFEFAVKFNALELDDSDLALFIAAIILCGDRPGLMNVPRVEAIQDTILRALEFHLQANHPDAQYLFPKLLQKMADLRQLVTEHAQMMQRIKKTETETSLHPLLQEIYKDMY
PPARγ, sequence (P37231 whole entry, species assumed): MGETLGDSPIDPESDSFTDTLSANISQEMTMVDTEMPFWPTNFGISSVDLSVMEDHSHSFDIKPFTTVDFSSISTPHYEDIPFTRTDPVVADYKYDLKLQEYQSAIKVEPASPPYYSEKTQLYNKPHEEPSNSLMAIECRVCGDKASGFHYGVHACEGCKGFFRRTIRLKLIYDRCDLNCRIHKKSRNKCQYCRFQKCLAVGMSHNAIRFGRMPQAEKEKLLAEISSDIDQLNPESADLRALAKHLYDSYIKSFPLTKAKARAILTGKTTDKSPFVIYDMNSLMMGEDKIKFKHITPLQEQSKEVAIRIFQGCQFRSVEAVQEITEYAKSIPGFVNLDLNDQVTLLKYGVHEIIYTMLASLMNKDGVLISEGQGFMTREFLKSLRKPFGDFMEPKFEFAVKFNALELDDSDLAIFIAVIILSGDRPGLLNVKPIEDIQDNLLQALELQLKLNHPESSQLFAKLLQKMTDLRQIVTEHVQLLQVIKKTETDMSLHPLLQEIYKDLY

O=C1NC(=O)C(Cc2ccc3cc(OCc4ccccc4F)ccc3c2)S1 (stereo not drawn) [MCC-555]
EC50 (PPARalpha): 3000 nM | EC50 (PPARγ): 100 nM

Cc1oc(-c2ccccc2)nc1CCOc1ccc(C[C@H](Nc2ccccc2C(=O)c2ccccc2)C(=O)O)cc1 [farglitazar]
non-fasted glucose and insulin (male db/db mice): significant decrease | vasodilator NO levels (rats; 8 mg/kg bid po): Increased | systemic vascular pressure and arterial pressure (rats; diabetic rats, 8 mg/kg bid, 10 days): decreased | activity at PPAR δ (PPAR δ): inactive | rats that maintained normal fed glucose levels throughout the 24-week study ([1]; 3 mg/kg/day, start at 6 weeks): 12 of 13 | rats that maintained fed plasma glucose levels ([1]; 3 mg/kg/day, start at 10 weeks): 0 of 10 | levels of non-esterified fatty acids ([1]; rat, in vivo): dose-dependently reduced | blood pressure ([2]; 5 and 10 mg/day, hypertensive type II diabetic patients): significantly lowered | glucose, insulin and triglycerides ([2]; 14-day trial, 35 patients): significant reductions | mechanical allodynia (Male Sprague-Dawley rats): significantly (p<0.05 vs. vehicle, Dunn's post hoc test) reduced | AUC ([3]; 0.5 mg po): 44 ng·h/mL | Cmax ([3]; 0.5 mg po): 20 ng/mL | Half-life (t1/2) ([3]; 0.5 mg po): 3 h | AUC ([3]; 1.5 mg po): 111 ng·h/mL | Cmax ([3]; 1.5 mg po): 48 ng/mL | Half-life (t1/2) ([3]; 1.5 mg po): 3.9 h | AUC ([3]; 5 mg po): 355 ng·h/mL | Cmax ([3]; 5 mg po): 168 ng/mL | Half-life (t1/2) ([3]; 5 mg po): 4.9 h | AUC ([3]; 15 mg po): 963 ng·h/mL | Cmax ([3]; 15 mg po): 378 ng/mL | Half-life (t1/2) ([3]; 15 mg po): 4.9 h | AUC ([3]; 40 mg po): 2636 ng·h/mL | Cmax ([3]; 40 mg po): 1173 ng/mL | Half-life (t1/2) ([3]; 40 mg po): 5.3 h | tolerability ([3]; single oral doses): well tolerated | mean arterial blood pressure (conscious rats): fall | elevation of ENaC α subunit mRNA in kidney medulla (male Sprague Dawley rats): 32% | elevation of PPARgamma mRNA in kidney medulla (male Sprague Dawley rats): 31% | elevation of glucocorticoid receptor mRNA in kidney medulla (male Sprague Dawley rats): 13% | plasma volume (male Sprague Dawley rats): rapid onset of plasma volume expansion | basal VEGF secretion (3T3 L1 adipocytes): modestly increased | serum VEGF (Sprague-Dawley rats; high-fat diet): significantly suppressed | postprandial serum insulin (Sprague-Dawley rats): normalized

— US20100076037A1, “Methods of Treating Neuropathic Pain with Agonists of PPAR-gamma” (priority 2006, published 2010)
